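Step 1: Grow cells in 96-well plates. Step 2: Expose to compound for 48 hours at 5 concentrations. Step 3: Interpolate endpoints linearly; if unreached, use highest concentration. GI50 is the concentration that inhibits growth by half. Definition used: TGI = concentration required for complete inhibition of growth.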
Key:
Assay in all cases: inhibition of tumour cell growth, NCI panel, 48 h
[1] = test system: UACC-62 melanoma
[2] = test system: ACHN renal
[3] = test system: NCI-H460 lung
[4] = test system: MOLT-4 leukemia
[5] = test system: EKVX NSCLC
[6] = test system: SW-620 colon
[7] = test system: HS 578T breast
[8] = test system: LOX IMVI melanoma
[9] = test system: RXF 393 renal
[10] = test system: MCF7 breast
[11] = test system: HCT-15 colon
[12] = test system: MDA-MB-435
[13] = test system: SK-MEL-28 melanoma
[14] = test system: A498 renal
[15] = test system: CCRF-CEM leukemia
[16] = test system: HT29 colon
[17] = test system: T-47D breast
[18] = test system: SR leukemia
[19] = test system: HCC-2998 colon
[20] = test system: OVCAR-4 ovarian
[21] = test system: HOP-62 NSCLC
[22] = test system: SF-539 CNS
[23] = test system: SF-295 CNS
[24] = test system: HCT-116 colon
[25] = test system: OVCAR-5 ovarian
[26] = test system: IGROV1 ovarian
[27] = test system: COLO 205 colon
[28] = test system: RPMI-8226 leukemia
[29] = test system: NCI-H226 lung
[30] = test system: TK-10 renal
[31] = test system: 786-0 renal
[32] = test system: DU-145 prostate
[33] = test system: HOP-92 NSCLC
[34] = test system: U251 CNS
[35] = test system: SN12C renal
[36] = test system: SK-MEL-5 melanoma
[37] = test system: UACC-257 melanoma
[38] = test system: OVCAR-8 ovarian
[39] = test system: SK-MEL-2 melanoma
[40] = test system: SK-OV-3 ovarian
[41] = test system: M14 melanoma
[42] = test system: K-562 leukemia
[43] = test system: KM12 colon
[44] = test system: UO-31 renal
[45] = test system: SNB-19 CNS
[46] = test system: SF-268 CNS
[47] = test system: BT-549 breast
[48] = test system: MDA-MB-468 breast
[49] = test system: A549 NSCLC
[50] = test system: MALME-3M melanoma
[51] = test system: PC-3 prostate
[52] = test system: MDA-MB-231 breast
[53] = test system: NCI-H522 lung
[54] = test system: OVCAR-3 ovarian
[55] = test system: NCI/ADR-RES ovarian
[56] = test system: CAKI-1 renal
[57] = test system: HL-60(TB) leukemia
[58] = test system: NCI-H23 lung
[59] = test system: SNB-75 CNS

`C[C@H]1CN(C(=O)c2ccc3c(NNC(=O)c4ccncn4)nc4cc(F)c(F)cc4n23)CCN1` showed a GI50 [1] of 1.53 µM, a TGI [1] of 4.56 µM and a GI50 [2] of 452 nM. It also gave a TGI [2] of 12.2 µM, a GI50 [3] of 492 nM and a TGI [3] of 12.7 µM. It also gave a GI50 [4] of 1980 nM, a TGI [4] of 17.2 µM and a GI50 [5] of 871 nM. The TGI [5] was 9.24 µM, the GI50 [6] was 1980 nM and the TGI [6] was greater than 100 µM. It also gave a GI50 [7] of 7.64 µM, a TGI [7] greater than 100 µM and a GI50 [8] of 880 nM. For the same compound, the TGI [8] was 4.44 µM, the GI50 [9] was 2120 nM and the TGI [9] was 12.2 µM. The GI50 [10] was 2750 nM, the TGI [10] was 55.8 µM and the GI50 [11] was 180 nM. It also gave a TGI [11] of 20.1 µM, a GI50 [12] of 4.83 µM and a TGI [12] greater than 100 µM. The GI50 [13] was 2920 nM, the TGI [13] was greater than 100 µM and the GI50 [14] was 19.1 µM. For the same compound, the TGI [14] was 34.3 µM, the GI50 [15] was 1250 nM and the TGI [15] was 8.74 µM. It also gave a GI50 [16] of 495 nM, a TGI [16] of 16 µM and a GI50 [17] of 3.43 µM. It also gave a TGI [17] greater than 100 µM, a GI50 [18] of 444 nM and a TGI [18] of 11.3 µM. It also gave a GI50 [19] of 2140 nM, a TGI [19] of 62.5 µM and a GI50 [20] of 2.12 µM. It also gave a TGI [20] of 40.1 µM, a GI50 [21] of 938 nM and a TGI [21] greater than 100 µM. For the same compound, the GI50 [22] was 2610 nM, the TGI [22] was 14.5 µM and the GI50 [23] was 418 nM. It also gave a TGI [23] of 19.1 µM, a GI50 [24] of 568 nM and a TGI [24] of 22.2 µM. The GI50 [25] was 2580 nM, the TGI [25] was 44.4 µM and the GI50 [26] was 3.29 µM. For the same compound, the TGI [26] was greater than 100 µM, the GI50 [27] was 2320 nM and the TGI [27] was 15 µM. For the same compound, the GI50 [28] was 2710 nM, the TGI [28] was greater than 100 µM and the GI50 [29] was 1.49 µM. For the same compound, the TGI [29] was 13 µM, the GI50 [30] was 373 nM and the TGI [30] was 16.8 µM. For the same compound, the GI50 [31] was 879 nM, the TGI [31] was 11.4 µM and the GI50 [32] was 1.99 µM. It also gave a TGI [32] greater than 100 µM, a GI50 [33] of 246 nM and a TGI [33] of 5.56 µM. It also gave a GI50 [34] of 892 nM, a TGI [34] greater than 100 µM and a GI50 [35] of 2.87 µM. The TGI [35] was greater than 100 µM, the GI50 [36] was 1550 nM and the TGI [36] was 11.1 µM. It also gave a GI50 [37] of 3.34 µM, a TGI [37] of 20.3 µM and a GI50 [38] of 1050 nM. It also gave a TGI [38] of 14 µM, a GI50 [39] of 2.73 µM and a TGI [39] of 20.1 µM. It also gave a GI50 [40] of 1.2 µM, a TGI [40] of 17.2 µM and a GI50 [41] of 711 nM. The TGI [41] was 4.5 µM, the GI50 [42] was 1970 nM and the TGI [42] was 32.6 µM. For the same compound, the GI50 [43] was 2290 nM, the TGI [43] was 54 µM and the GI50 [44] was 284 nM. For the same compound, the TGI [44] was 5.08 µM, the GI50 [45] was 3.4 µM and the TGI [45] was greater than 100 µM. For the same compound, the GI50 [46] was 2.17 µM, the TGI [46] was greater than 100 µM and the GI50 [47] was 4.06 µM. It also gave a TGI [47] of 85.8 µM, a GI50 [48] of 1510 nM and a TGI [48] of 4.54 µM. It also gave a GI50 [49] of 773 nM, a TGI [49] of 15.6 µM and a GI50 [50] of 2570 nM. For the same compound, the TGI [50] was 9.98 µM, the GI50 [51] was 1600 nM and the TGI [51] was 30.6 µM. It also gave a GI50 [52] of 3420 nM, a TGI [52] of 49.9 µM and a GI50 [53] of 2180 nM. It also gave a TGI [53] of 20.3 µM, a GI50 [54] of 3.32 µM and a TGI [54] of 81.1 µM. It also gave a GI50 [55] of 1240 nM, a TGI [55] of 6.73 µM and a GI50 [56] of 566 nM. For the same compound, the TGI [56] was 27.2 µM, the GI50 [57] was 1300 nM and the TGI [57] was 6.27 µM. For the same compound, the GI50 [58] was 2000 nM and the TGI [58] was greater than 100 µM.
In the case of `Nc1cc(-c2c[nH]c3ccc(F)cc23)nc2cc(-c3c[nH]c4ccccc34)nn12`, the GI50 [1] is reported as 6.03 µM, the TGI [1] is reported as 19.3 µM and the GI50 [2] is reported as 3220 nM. For the same compound, the TGI [2] was 10.9 µM, the GI50 [3] was 2270 nM and the TGI [3] was 5.37 µM. For the same compound, the GI50 [4] was 2440 nM, the TGI [4] was 6.87 µM and the GI50 [5] was 3490 nM. For the same compound, the TGI [5] was 14.9 µM, the GI50 [6] was 2110 nM and the TGI [6] was 4.22 µM. The GI50 [7] was 3.73 µM, the TGI [7] was 20.5 µM and the GI50 [59] was 2880 nM. For the same compound, the TGI [59] was 14.6 µM, the GI50 [9] was 2190 nM and the TGI [9] was 7.82 µM. For the same compound, the GI50 [10] was 2540 nM, the TGI [10] was 8.12 µM and the GI50 [11] was 1710 nM. It also gave a TGI [11] of 3.69 µM, a GI50 [12] of 3.67 µM and a TGI [12] of 15.2 µM. For the same compound, the GI50 [13] was 2960 nM, the TGI [13] was 9.82 µM and the GI50 [14] was 2.8 µM. The TGI [14] was 11.3 µM, the GI50 [15] was 2650 nM and the TGI [15] was 8.01 µM. The GI50 [16] was 2090 nM, the TGI [16] was 4.72 µM and the GI50 [17] was 3.54 µM. The TGI [17] was 20.9 µM, the GI50 [18] was 2090 nM and the TGI [18] was 8.42 µM. For the same compound, the GI50 [19] was 2020 nM, the TGI [19] was 4.14 µM and the GI50 [20] was 4.2 µM. The TGI [20] was 18.9 µM, the GI50 [21] was 4550 nM and the TGI [21] was 21.8 µM. The GI50 [22] was 2000 nM, the TGI [22] was 4.01 µM and the GI50 [23] was 1860 nM. For the same compound, the TGI [23] was 4.04 µM, the GI50 [24] was 1910 nM and the TGI [24] was 4.1 µM. For the same compound, the GI50 [25] was 3300 nM, the TGI [25] was 11.1 µM and the GI50 [26] was 4.26 µM. The TGI [26] was 17.6 µM, the GI50 [27] was 1600 nM and the TGI [27] was 3.2 µM. It also gave a GI50 [28] of 2640 nM, a TGI [28] of 8.15 µM and a GI50 [29] of 5.57 µM. For the same compound, the TGI [29] was 32.6 µM, the GI50 [30] was 5540 nM and the TGI [30] was 19.9 µM. For the same compound, the GI50 [31] was 1490 nM, the TGI [31] was 2.93 µM and the GI50 [32] was 4.3 µM. The TGI [32] was 15.3 µM, the GI50 [33] was 2420 nM and the TGI [33] was 7.09 µM. It also gave a GI50 [34] of 3530 nM, a TGI [34] of 14.1 µM and a GI50 [35] of 6.94 µM. The TGI [35] was 21.7 µM, the GI50 [36] was 3790 nM and the TGI [36] was 13.6 µM. For the same compound, the GI50 [37] was 4.28 µM, the TGI [37] was 15.2 µM and the GI50 [38] was 4300 nM. It also gave a TGI [38] of 26.7 µM, a GI50 [39] of 3.96 µM and a TGI [39] of 15.1 µM. The GI50 [40] was 10.1 µM, the TGI [40] was 23 µM and the GI50 [41] was 1980 nM. The TGI [41] was 4.21 µM, the GI50 [42] was 2150 nM and the TGI [42] was 6.12 µM. It also gave a GI50 [43] of 2350 nM, a TGI [43] of 5.79 µM and a GI50 [44] of 3020 nM. The TGI [44] was 12.7 µM, the GI50 [45] was 4.59 µM and the TGI [45] was 18.9 µM. For the same compound, the GI50 [46] was 4.15 µM, the TGI [46] was 21.7 µM and the GI50 [47] was 8.6 µM. For the same compound, the TGI [47] was 20.8 µM, the GI50 [48] was 1700 nM and the TGI [48] was 4.3 µM. The GI50 [49] was 3810 nM, the TGI [49] was 20.5 µM and the GI50 [50] was 2240 nM. For the same compound, the TGI [50] was 4.79 µM, the GI50 [51] was 3180 nM and the TGI [51] was 12.2 µM. The GI50 [52] was 2000 nM, the TGI [52] was 3.84 µM and the GI50 [54] was 4.17 µM. It also gave a TGI [54] of 16.9 µM, a GI50 [55] of 3820 nM and a TGI [55] of 19.3 µM. The GI50 [56] was 2740 nM, the TGI [56] was 12.4 µM and the GI50 [57] was 2180 nM. For the same compound, the TGI [57] was 9.55 µM, the GI50 [58] was 3800 nM and the TGI [58] was 17.7 µM.

Reference: PubChem BioAssay (NCI)
